PubChem BioAssay AID1259411 (Chemical Carcinogenesis Research Information System (CCRIS), 2018)
Calls of active or inactive are those of the source. How the calls were made is not given here.

Tested on: rodent carcinogenicity bioassays, tumor incidence
Assay: CCRIS carcinogenicity studies
How it was run: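 Archive of carcinogenicity, mutagenicity, tumor promotion and tumor inhibition results drawn from journals, NCI reports and other sources, expert-reviewed; covers 1985-2011 and is no longer updated.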

With `O=[N+]([O-])c1ccc2ccc3cccc4ccc1c2c34` the carcinogen call (Species: HAMSTER, Strain/Sex: SYRIAN/MALE, Route: INTRATRACHEAL, Dose: 0, 1, 2 MG ADSORBED ONTO CARBON CARRIER PARTICLES IN 0.2 ML SALINE 1/WK FOR 92 WK (STUDY DURATION: 92 WK), Dose: 0, 1, 2 MG ADSORBED ONTO CARBON CARRIER PARTICLES IN 0.2 ML SALINE 1/WK FOR 92 WK (STUDY DURATION: 92 WK)) was “inactive; negative”, the carcinogen call (Species: HAMSTER, Strain/Sex: SYRIAN/MALE, Route: INTRATRACHEAL, Dose: 0, 1, 2 MG ADSORBED ONTO CARBON CARRIER PARTICLES IN 0.2 ML SALINE 2/WK FOR 92 WK (STUDY DURATION: 92 WK), Dose: 0, 1, 2 MG ADSORBED ONTO CARBON CARRIER PARTICLES IN 0.2 ML SALINE 2/WK FOR 92 WK (STUDY DURATION: 92 WK)) was “inactive; negative” and the carcinogen call (Species: MOUSE, Strain/Sex: B6C3F1/FEMALE, Route: INTRAPERITONEAL, Dose: 0, 7 NMOL (TOTAL DOSE), 1/7, 2/7 AND 4/7 OF THE TOTAL DOSE ADMINISTERED WITHIN 24 HR OF BIRTH AND AT 8 AND 15 D OF AGE) was “inactive; negative”. The carcinogen call (Species: MOUSE, Strain/Sex: B6C3F1/MALE, Route: INTRAPERITONEAL, Dose: 0, 7 NMOL (TOTAL DOSE), 1/7, 2/7 AND 4/7 OF THE TOTAL DOSE ADMINISTERED WITHIN 24 HR OF BIRTH AND AT 8 AND 15 D OF AGE) was “inactive; negative”, the carcinogen call (Species: MOUSE, Strain/Sex: BALB/MALE, Route: SUBCUTANEOUS, Dose: 0, 0.1 MG IN DMSO 1/WK FOR 20 WK (STUDY DURATION: 60 WK)) was “inactive; negative” and the carcinogen call (Species: MOUSE, Strain/Sex: ICR/FEMALE, Route: INTRAPERITONEAL, Dose: 0, 21 UG TOTAL DOSE (3 UG/5 µL, 6 UG/10 µL, 12 UG/20 µL DMSO ON DAYS 1,8 AND 15), 105 UG TOTAL DOSE (15 UG/5 µL, 30 UG/1, Dose: 0, 21 UG TOTAL DOSE (3 UG/5 µL, 6 UG/10 µL, 12 UG/20 µL DMSO ON DAYS 1,8 AND 15), 105 UG TOTAL DOSE (15 UG/5 µL, 30 UG/1) was “inactive; negative”. For the same compound, the carcinogen call (Species: MOUSE, Strain/Sex: ICR/MALE, Route: INTRAPERITONEAL, Dose: 0, 21 UG TOTAL DOSE (3 UG/5 µL, 6 UG/10 µL, 12 UG/20 µL DMSO ON DAYS 1,8 AND 15), 105 UG TOTAL DOSE (15 UG/5 µL, 30 UG/1, Dose: 0, 21 UG TOTAL DOSE (3 UG/5 µL, 6 UG/10 µL, 12 UG/20 µL DMSO ON DAYS 1,8 AND 15), 105 UG TOTAL DOSE (15 UG/5 µL, 30 UG/1) was “inactive; negative”, the carcinogen call (Species: MOUSE, Strain/Sex: STRAIN-A/FEMALE, Route: INTRAPERITONEAL, Dose: 0, 0.71, 2.14, 6.44 MMOL/KG IN 0.1 ML TRIOCTANOIN TOTAL DOSE ADMINISTERED AS 3 INJECTIONS/WK FOR 17 INJECTIONS (STUDY DU, Dose: 0, 0.71, 2.14, 6.44 MMOL/KG IN 0.1 ML TRIOCTANOIN TOTAL DOSE ADMINISTERED AS 3 INJECTIONS/WK FOR 17 INJECTIONS (STUDY DU, Tumor Site: Type of Lesion: LUNG: ADENOMA) was “active; positive” and the carcinogen call (Species: MOUSE, Strain/Sex: STRAIN-A/MALE, Route: INTRAPERITONEAL, Dose: 0, 0.71, 2.14, 6.44 MMOL/KG IN 0.1 ML TRIOCTANOIN TOTAL DOSE ADMINISTERED AS 3 INJECTIONS/WK FOR 17 INJECTIONS (STUDY DU, Dose: 0, 0.71, 2.14, 6.44 MMOL/KG IN 0.1 ML TRIOCTANOIN TOTAL DOSE ADMINISTERED AS 3 INJECTIONS/WK FOR 17 INJECTIONS (STUDY DU, Tumor Site: Type of Lesion: LUNG: ADENOMA) was “active; positive”. The carcinogen call (Species: RAT, Strain/Sex: F344/DUCRJ FISCHER/MALE, Route: SUBCUTANEOUS, Dose: 2 MG TWICE WEEKLY FOR 10 WK (STUDY DURATION: 52 WK), Tumor Site: Type of Lesion: INTEGUMENTARY SYSTEM: FIBROUS HISTIOCYTOMAS) was “active; positive”, the carcinogen call (Species: RAT, Strain/Sex: F344/FEMALE, Route: SUBCUTANEOUS, Dose: 0, 40 UMOL (TOTAL DOSE) ADMINISTERED OVER 8 WK BEGINNING WITHIN 24 HR OF BIRTH (STUDY DURATION: 86 WK), Tumor Site: Type of Lesion: HEMATOPOIETIC SYSTEM: LEUKEMIA) was “active; positive” and the carcinogen call (Species: RAT, Strain/Sex: F344/MALE, Route: SUBCUTANEOUS, Dose: 0, 0.2, 2 MG 2/WK FOR 10 WK (STUDY DURATION: 650 D), Dose: 0, 0.2, 2 MG 2/WK FOR 10 WK (STUDY DURATION: 650 D)) was “inactive; negative”. For the same compound, the carcinogen call (Species: RAT, Strain/Sex: F344/MALE, Route: SUBCUTANEOUS, Dose: 2 MG IN DMSO 2/WK FOR 10 WK, Tumor Site: Type of Lesion: INJECTION SITE: MALIGNANT FIBROUS HISTIOCYTOMA) was “active; positive”, the carcinogen call (Species: RAT, Strain/Sex: SPRAGUE-DAWLEY/FEMALE, Route: SUBCUTANEOUS, Dose: 0, 50, 100 UMOL/KG IN DMSO 1/WK FOR 8 WK (STUDY DURATION: 62 WK), Dose: 0, 50, 100 UMOL/KG IN DMSO 1/WK FOR 8 WK (STUDY DURATION: 62 WK), Tumor Site: Type of Lesion: INJECTION SITE: MALIGNANT FIBROUS HISTIOCYTOMA, MAMMARY GLAND: FIBROADENOMA, ADENOCARCINOMA) was “active; positive” and the carcinogen call (Species: RAT, Strain/Sex: SPRAGUE-DAWLEY/MALE, Route: SUBCUTANEOUS, Dose: 0, 50, 100 UMOL/KG IN DMSO 1/WK FOR 8 WK (STUDY DURATION: 62 WK), Dose: 0, 50, 100 UMOL/KG IN DMSO 1/WK FOR 8 WK (STUDY DURATION: 62 WK), Tumor Site: Type of Lesion: INJECTION SITE: MALIGNANT FIBROUS HISTIOCYTOMA) was “active; positive”. The carcinogen call (Species: RAT, Strain/Sex: STRAIN CD/FEMALE, Route: INTRAGASTRIC, Dose: 0, 10 UMOL IN DMSO 3/WK FOR 4 WK (TOTAL DOSE: 16 UMOL/RAT) (STUDY DURATION: 78 WK)) was “inactive; negative”, the carcinogen call (Species: RAT, Strain/Sex: STRAIN CD/FEMALE, Route: INTRAPERITONEAL, Dose: 0, 10 UMOL IN DMSO 3/WK FOR 4 WK (TOTAL DOSE: 16 UMOL/RAT) (STUDY DURATION: 78 WK), Tumor Site: Type of Lesion: MAMMARY GLAND: ADENOCARCINOMA, FIBROADENOMA) was “active; positive” and the carcinogen call (Species: RAT, Strain/Sex: STRAIN CD/FEMALE, Route: INTRAPERITONEAL, Dose: 0, 10 UMOL IN DMSO 3/WK FOR 4 WK (TOTAL DOSE: 16 UMOL/RAT) (STUDY DURATION: 78 WK), Tumor Site: Type of Lesion: PITUITARY GLAND: CARCINOMA) was “active; positive”. The carcinogen call (Species: RAT, Strain/Sex: STRAIN-CD/FEMALE, Route: GAVAGE, Dose: 0, 50 UMOL IN 0.5 ML TRIOCTANOIN 1/WK FOR 8 WK (STUDY DURATION: 49 WK), Tumor Site: Type of Lesion: MAMMARY GLAND: FIBROADENOMA) was “active; positive”, the carcinogen call (Species: RAT, Strain/Sex: STRAIN-CD/FEMALE, Route: INJECTION, Dose: 0, 0.1 ML OF 20.3 UMOL/ML DMSO INJECTED INTO MAMMARY TISSUE OF THE 3 LEFT THORACIC NIPPLES FOLLOWED THE NEXT D BY SIMILA) was “inactive; negative” and the carcinogen call (Species: RAT, Strain/Sex: STRAIN-CD/FEMALE, Route: INJECTION, Dose: 0, 0.1 ML OF A 20.3 UMOL/ML SOLUTION IN DMSO INJECTED INTO MAMMARY TISSUE UNDERLYING 3 LEFT THORACIC NIPPLES THE FOLLOWI) was “inactive; negative”. For the same compound, the carcinogen call (Species: RAT, Strain/Sex: STRAIN-CD/FEMALE, Route: INTRAPERITONEAL, Dose: 0, 67 UMOL/KG BW IN DMSO 3/WK FOR 4 WK (STUDY DURATION: 61 WK)) was “inactive; negative”, the carcinogen call (Species: RAT, Strain/Sex: STRAIN-CD/FEMALE, Route: INTRAPERITONEAL, Dose: 0, 67 UMOL/KG/BW IN 25 UMOL/ML DMSO 3/WK FOR 4 WK (TOTAL DOSE: 0; 119 UMOL) ADMINISTERED TO WEANLING RATS (STUDY DURATIO, Dose: 0, 67 UMOL/KG/BW IN 25 UMOL/ML DMSO 3/WK FOR 4 WK (TOTAL DOSE: 0; 119 UMOL) ADMINISTERED TO WEANLING RATS (STUDY DURATIO) was “inactive; negative” and the carcinogen call (Species: RAT, Strain/Sex: STRAIN-CD/FEMALE, Route: INTRAPERITONEAL, Dose: 0, 100 UMOL/KG BW IN DMSO 1/WK FOR 4 WK (STUDY DURATION: 90 WK), Tumor Site: Type of Lesion: MAMMARY GLAND: ADENOCARCINOMA) was “active; positive”. The carcinogen call (Species: RAT, Strain/Sex: STRAIN-CD/FEMALE, Route: INTRAPERITONEAL, Dose: 0, 100 UMOL/KG/BW IN 70 UMOL/ML DMSO 1/WK FOR 4 WK (TOTAL DOSE: 0; 77.3 UMOL) ADMINISTERED TO WEANLING RATS (STUDY DURAT, Dose: 0, 100 UMOL/KG/BW IN 70 UMOL/ML DMSO 1/WK FOR 4 WK (TOTAL DOSE: 0; 77.3 UMOL) ADMINISTERED TO WEANLING RATS (STUDY DURAT, Tumor Site: Type of Lesion: MAMMARY GLAND: ADENOCARCINOMA) was “active; positive”, the carcinogen call (Species: RAT, Strain/Sex: STRAIN-CD/FEMALE, Route: SUBCUTANEOUS, Dose: 0, 6.3 UMOL (TOTAL DOSE) ADMINISTERED OVER 8 WK BEGINNING ON DAY OF BIRTH (STUDY DURATION: 67 WK), Tumor Site: Type of Lesion: MAMMARY GLAND: TUMOR) was “active; positive” and the carcinogen call (Species: RAT, Strain/Sex: STRAIN-CD/FEMALE, Route: SUBCUTANEOUS, Dose: 0, 63 UMOL (TOTAL DOSE) ADMINISTERED OVER 8 WK BEGINNING WITHIN 24 HR OF BIRTH (STUDY DURATION: 86 WK), Tumor Site: Type of Lesion: MAMMARY GLAND: TUMOR) was “active; positive”. The carcinogen call (Species: RAT, Strain/Sex: STRAIN-CD/FEMALE, Route: SUBCUTANEOUS, Dose: 0, 100 UMOL/KG BW IN DMSO 1/WK FOR 4 WK (STUDY DURATION: 90 WK), Tumor Site: Type of Lesion: MAMMARY GLAND: FIBROADENOMA) was “active; positive”, the carcinogen call (Species: RAT, Strain/Sex: STRAIN-CD/FEMALE, Route: SUBCUTANEOUS, Dose: 0, 100 UMOL/KG/BW IN 70 UMOL/ML DMSO 1/WK FOR 4 WK (TOTAL DOSE: 0; 74.3 UMOL) ADMINISTERED TO WEANLING RATS (STUDY DURAT, Dose: 0, 100 UMOL/KG/BW IN 70 UMOL/ML DMSO 1/WK FOR 4 WK (TOTAL DOSE: 0; 74.3 UMOL) ADMINISTERED TO WEANLING RATS (STUDY DURAT, Tumor Site: Type of Lesion: MAMMARY GLAND: FIBROADENOMA) was “active; positive” and the carcinogen call (Species: RAT, Strain/Sex: STRAIN-CD/FEMALE, Route: SUBCUTANEOUS, Dose: 50, 100 UMOL/KG IN DMSO 1/WK FOR 8 WK, Tumor Site: Type of Lesion: INJECTION SITE: FIBROSARCOMA, MAMMARY GLAND: ADENOCARCINOMA) was “active; positive”. The carcinogen call (Species: RAT, Strain/Sex: STRAIN-CD/MALE, Route: SUBCUTANEOUS, Dose: 50, 100 UMOL/KG IN DMSO 1/WK FOR 8 WK, Tumor Site: Type of Lesion: INJECTION SITE: FIBROSARCOMA) was “active; positive”.
